Key:
[1] = system: patients with symptomatic MDD; test: Clinician Global Impression-Improvement Scale (CGI-I), Phase 1B study; assay type: in vivo, human; conditions: for Cohen's d value, CGI-I (ANCOVA): all test groups (n=18) vs placebo (n=6), Day 7 as baseline
Experimental: (§1) A double-blind, placebo-controlled, multiple-ascending-dose study employing the compound of formula (1) was performed in patients with symptomatic MDD. Twenty-four subjects were recruited, with their diagnosis and illness severity confirmed through an independent, remote SAFER interview (Targum, S. D., et al., CNS Neurosci. Ther. (2008) 14:2-9) from the Massachusetts General Hospital (MGH) Clinical Trials Network and Institute (CTNI) raters. Each patient underwent a screening for eligibility (Day −37 to Day −6 or −3) and eligible patients were admitted into the unit on Day −5 to complete their wash-out and be reconfirmed for eligibility and for baseline assessments. The patients received daily dosing of formula (1) or placebo for 28 days starting on Day 1 and were followed for safety, pharmacokinetics (PK) and pharmacodynamics (PD) until discharge. At the conclusion of in-house dosing (Day 28), patients remained in the unit for up to 3 additional days, at the psychiatrist's discretion. On Day 35 (±3), Day 42 (±3), Day 49 (±3) and Day 70 (±3) outpatient follow-up visits took place. Patients returned to the unit for extensive follow-up on Day 56 (±3) and Day 84 (±3) (End-of-study).
(§2) The subjects were randomized into four groups of 6 patients each to receive 40 mg of formula (1) per dose administered orally in gelatin capsules once daily, twice daily or three times daily to provide 40 or 80 or 120 mg daily of formula (1) or placebo for 28 days. Each cohort included at least 3 female subjects. In this example, qEEG was used to characterize pharmacodynamic effects.
In this example, the results of the study of Example 1 were evaluated by the efficacy assessments that included the Montgomery-Asberg Depression Rating Scale (MADRS), the Clinician Global Impression-Improvement (CGI-I), the Symptoms of Depression Questionnaire (SDQ) and the Cognitive and Physical Functioning Questionnaire (CPFQ). […] These improvements persisted over time during the follow-up for MADRS, SDQ and CPFQ.
Baseline values were adjusted for initial differences and the results for the placebo group (n=6) and the tested groups (n=18) were collapsed. The sizes of the effects were estimated as Cohen's d group mean differences where d=0.20 indicates only a small difference, d=0.50 indicates a medium difference and d=0.80 indicates a large difference. Cohen's d values are described in Cohen, J. (1988) Statistical Power Analysis for the Behavioral Sciences (2nd ed.), Lawrence Erlbaum Associates. D values are used when the scale of a dependent variable is not inherently meaningful, the difference between means are considered in standardized units. That is, effect size is measured in terms of the number of standard deviations by which the means differ. Two commonly used measures are Hedges' g and Cohen's d. Both of these measures consist of the difference between means divided by the standard deviation. They differ only in that Hedges' g uses the version of the standard deviation formula in which division is by N−1, whereas Cohen's d uses the version in which division is by N.
Covariance is a measure of how much two variables change together and how strong the relationship is between them (Lenth, R. V., The American Statistician (2001) 55:187-193). Analysis of covariance (ANCOVA) is a general linear model which blends analysis of variance (ANOVA) and regression. ANCOVA evaluates whether population means of a dependent variable (DV) are equal across levels of a categorical independent variable (IV), while statistically controlling for the effects of other continuous variables that are not of primary interest, known as covariates (CV). Therefore, when performing ANCOVA, the DV means are adjusted to what they would be if all groups were equal on the CV. In the CGI-I assay, Day 7 was used as the baseline value; in the remaining assays, Day 0 was used as baseline.

[2] = system: patients with symptomatic MDD; test: Safety and tolerability in Phase 1B study; assay type: in vivo, human
Experimental: as §1, §2
In addition to safety, pharmacokinetic and the behavioral ratings scales described in Example 2, qEEG measurements were obtained 6 hours post-dose on Days 14 and 28 for 20 minutes at rest. EEGs were recorded using 19-standard International 10/20 System scalp locations plus electromyography (EMG) and eye movement monitoring. Digital EEGs recorded using Cadwell Laboratories instrumentation, were reviewed to identify the presence of physiological and instrumentation prior to analyses. […]

SMILES: CC(C)CCNc1ncccc1C(=O)N1CCN(Cc2ccccc2)CC1 [formula (1)]
- Cohen's d value, CGI-I (ANCOVA) ([1]; 70 days): 1.13
- CGI-I Means ([1]; Day 7, 1x = 40 mg/day oral (n=6)): 3.5
- CGI-I Means ([1]; Day 7, 2x = 80 mg/day oral (n=6)): 3.8333
- CGI-I Means ([1]; Day 7, 3x = 120 mg/day oral (n=6)): 3.6667
- CGI-I Means ([1]; Day 7, all three dose groups pooled (n=18)): 3.6667
- CGI-I Means ([1]; Day 14, 1x = 40 mg/day oral (n=6)): 3
- CGI-I Means ([1]; Day 14, 2x = 80 mg/day oral (n=6)): 3.3333
- CGI-I Means ([1]; Day 14, 3x = 120 mg/day oral (n=6)): 3.1667
- CGI-I Means ([1]; Day 14, all three dose groups pooled (n=18)): 3.1667
- CGI-I Means ([1]; Day 21, 1x = 40 mg/day oral (n=6)): 2.8333
- CGI-I Means ([1]; Day 21, 2x = 80 mg/day oral (n=6)): 3.3333
- CGI-I Means ([1]; Day 21, 3x = 120 mg/day oral (n=6)): 3.3333
- CGI-I Means ([1]; Day 21, all three dose groups pooled (n=18)): 3.1667
- CGI-I value ([1]; Day 28, 40 mg/day, FIG. 1, placebo subset (n=2) 3.5): approximately 2.5
- CGI-I value ([1]; Day 28, 80 mg/day (40 mg two times daily), FIG. 1): 3
- CGI-I value versus controls ([1]; Day 28, 120 mg/day, FIG. 1): no difference from controls
- CGI-I Means ([1]; Day 29, 1x = 40 mg/day oral (n=6)): 2.5
- CGI-I Means ([1]; Day 29, 2x = 80 mg/day oral (n=6)): 2.8333
- CGI-I Means ([1]; Day 29, 3x = 120 mg/day oral (n=6)): 3.1667
- CGI-I Means ([1]; Day 29, all three dose groups pooled (n=18)): 2.8333
- Cohen's d value, CGI-I (ANCOVA) ([1]; Day 30): 0.57
- CGI-I Means ([1]; Day 35 (follow-up after 28 days dosing), 1x = 40 mg/day oral): 3.8333
- CGI-I Means ([1]; Day 35 (follow-up after 28 days dosing), 2x = 80 mg/day oral): 2.8333
- CGI-I Means ([1]; Day 35 (follow-up after 28 days dosing), 3x = 120 mg/day oral): 3
- CGI-I Means ([1]; Day 35 (follow-up after 28 days dosing), all three dose groups pooled (n=18)): 3.2222
- CGI-I Means ([1]; Day 42 (follow-up after 28 days dosing), 1x = 40 mg/day oral): 3.8333
- CGI-I Means ([1]; Day 42 (follow-up after 28 days dosing), 2x = 80 mg/day oral): 3
- CGI-I Means ([1]; Day 42 (follow-up after 28 days dosing), 3x = 120 mg/day oral): 3
- CGI-I Means ([1]; Day 42 (follow-up after 28 days dosing), all three dose groups pooled (n=18)): 3.2778
- CGI-I Means ([1]; Day 49 (follow-up after 28 days dosing), 1x = 40 mg/day oral): 3.5
- CGI-I Means ([1]; Day 49 (follow-up after 28 days dosing), 2x = 80 mg/day oral): 3.3333
- CGI-I Means ([1]; Day 49 (follow-up after 28 days dosing), 3x = 120 mg/day oral): 2.8333
- CGI-I Means ([1]; Day 49 (follow-up after 28 days dosing), all three dose groups pooled (n=18)): 3.2222
- CGI-I Means ([1]; Day 56 (follow-up after 28 days dosing), 1x = 40 mg/day oral): 3
- CGI-I Means ([1]; Day 56 (follow-up after 28 days dosing), 2x = 80 mg/day oral): 3
- CGI-I Means ([1]; Day 56 (follow-up after 28 days dosing), 3x = 120 mg/day oral): 2.1667
- CGI-I Means ([1]; Day 56 (follow-up after 28 days dosing), all three dose groups pooled (n=18)): 2.7222
- CGI-I Means ([1]; Day 70 (follow-up after 28 days dosing), 1x = 40 mg/day oral): 3.6667
- CGI-I Means ([1]; Day 70 (follow-up after 28 days dosing), 2x = 80 mg/day oral): 3.5
- CGI-I Means ([1]; Day 70 (follow-up after 28 days dosing), 3x = 120 mg/day oral): 3.3333
- CGI-I Means ([1]; Day 70 (follow-up after 28 days dosing), all three dose groups pooled (n=18)): 3.5
- CGI-I Means ([1]; Day 84 (follow-up after 28 days dosing), 1x = 40 mg/day oral): 3.3333
- CGI-I Means ([1]; Day 84 (follow-up after 28 days dosing), 2x = 80 mg/day oral): 2.6667
- CGI-I Means ([1]; Day 84 (follow-up after 28 days dosing), 3x = 120 mg/day oral): 2
- CGI-I Means ([1]; Day 84 (follow-up after 28 days dosing), all three dose groups pooled): 2.7059
- Serious adverse events ([2]; 40-120 mg/day oral for 28 days): No serious adverse events occurred
- Tolerability ([2]; 40-120 mg/day oral for 28 days): well tolerated
- Safety EEG recordings by visual inspection ([2]; pre vs post dose): no new findings
